Data on 6 substances can be found in PMC8072890, “Aminoalkylamides of Eremomycin Exhibit an Improved Antibacterial Activity” (Pharmaceuticals, 2021).

One experiment concerns E. faecalis 9. Type of experiment: cell-based. Conditions: strain resistant to vancomycin; broth dilution micromethod, CLSI; modal values (or range) of 3–5 independent tests. The text has this:
(§1) The antimicrobial activity of semisynthetic derivatives of eremomycin 4a–q was studied in comparison with vancomycin on a wide panel of Gram-positive bacteria sensitive (Staphylococcus aureus ATCC 29213, S. aureus R-2, S. haemoliticus 602, S. pneumoniae ATCC 6305, Enteroccus faecium 4, and E. faecalis 559) and resistant to vancomycin (S. aureus 3797, S.aureus 3798, E. faecium 2, E. faecium 3576, E. faecalis 9, E. faecalis 583, and E. gallinarum BΠ 4147), information about the strains given in Table S3. The minimum microbial inhibitory concentration (MIC) for the test compounds was determined by the broth dilution micromethod according to CLSI guidelines, and vancomycin and a standard strain S. aureus ATCC 29213 used as controls (Figure 2 and Tables S4 and S5).
(§2) Table S5. Antibacterial activity of vancomycin and derivatives 4a–q against resistant Gram-positive bacteria.
(§3) Strain/MIC (minimum inhibitory concentration; μg/ml)
(§4) Compound m n R S.aureus 3797 S.aureus 3798 E. faecium 2 E. faecium 3576 E. faecalis 9 E. faecalis 583 E. gallinarum
(§5) *MICs are presented as modal values for 3–5 independently replicate MIC tests for each strain and for the antibiotics. In the range of the obtained MIC
(§6) values, the obtained modal values are highlighted in bold.

Another experiment deals with E. faecalis 583. Type of experiment: cell-based. The conditions noted are these: strain resistant to vancomycin; broth dilution micromethod, CLSI; modal values (or range) of 3–5 independent tests.
Excerpt: as §1, §2, §3, §4, §5, §6
Background: In broth dilution the organism is exposed to a series of concentrations in liquid medium.

For another experiment, the system named is E. faecium 3576. Type of experiment: cell-based. The conditions noted are these: strain resistant to vancomycin; broth dilution micromethod, CLSI; modal values (or range) of 3–5 independent tests.
Excerpt: as §1, §2, §3, §4, §5, §6

The subject of a further experiment is S. aureus 3797. Type of experiment: cell-based. The conditions noted are these: strain resistant to vancomycin; broth dilution micromethod, CLSI; modal values (or range) of 3–5 independent tests.
Excerpt: as §1, §2, §3, §4, §5, §6

The next experiment relates to E. gallinarum BΠ 4147. It is filed as cell-based. Conditions: strain resistant to vancomycin; broth dilution micromethod, CLSI; modal values (or range) of 3–5 independent tests.
Excerpt: as §1, §2, §3, §4, §5, §6

Another experiment concerns E. faecium 2. Type of experiment: cell-based. Conditions: strain resistant to vancomycin; broth dilution micromethod, CLSI; modal values (or range) of 3–5 independent tests.
Excerpt: as §1, §2, §3, §4, §5, §6

The next experiment relates to S.aureus 3798. It is filed as cell-based. Conditions: strain resistant to vancomycin; broth dilution micromethod, CLSI; modal values (or range) of 3–5 independent tests.
Excerpt: as §1, §2, §3, §4, §5, §6

The test system of a further experiment is S. pneumoniae ATCC 6305. In words: MIC, broth dilution micromethod (CLSI). It is filed as cell-based. Conditions: sensitive strain, modal values (or range) of 3–5 independent tests.
Excerpt: as §1
(§7) Table S4. Antibacterial activity of vancomycin and derivatives 4a–q against sensitive Gram-positive bacteria.
(§8) Strain/MIC (Minimum inhibitory concentration, μg/ml)*
(§9) Compound m n R S.aureus АТСС S.aureus R-2 S.haemoliticus S.pneumoniae АТСС E. faecium 4 E. faecalis 559
(§10) *MICs are presented as modal values for 3–5 independently replicated MIC tests for each strain and for the antibiotics. In the range of the
(§11) obtained MIC values, the obtained modal values are highlighted in bold.

A further experiment has as its system S. haemoliticus 602. Type of experiment: cell-based. Conditions: sensitive strain; broth dilution micromethod, CLSI; modal values (or range) of 3–5 independent tests.
Excerpt: as §1, §7, §8, §9, §10, §11

The next experiment deals with E. faecium 4. It is filed as cell-based. Conditions: sensitive strain; broth dilution micromethod, CLSI; modal values (or range) of 3–5 independent tests.
Excerpt: as §1, §7, §8, §9, §10, §11

Experiment [1] has as its system Staphylococcus aureus ATCC 29213. Type of experiment: cell-based. The conditions noted are these: vancomycin-sensitive control strain; broth dilution micromethod, CLSI; modal values (or range) of 3–5 independent tests.
Excerpt: as §1, §7, §8, §9, §10, §11

The subject of another experiment is E. faecalis 559. Type of experiment: cell-based. Conditions: sensitive strain; broth dilution micromethod, CLSI; modal values (or range) of 3–5 independent tests.
Excerpt: as §1, §7, §8, §9, §10, §11

Another experiment has as its system S. aureus R-2. Type of experiment: cell-based. Conditions: sensitive strain; broth dilution micromethod, CLSI; modal values (or range) of 3–5 independent tests.
Excerpt: as §1, §7, §8, §9, §10, §11

Experiment [2] has as its system S. aureus (strain 10, clinical isolate). In words: Mouse staphylococcal sepsis model, single IV administration. It is filed as in vivo, mice (SHK colony). The conditions noted are these: for Survival: single IV, 30 min after infection, n = 10. Here is the method:
A comparative study of the efficacy of eremomycin N-(2-((2-fluorobenzyl)amino)ethyl)amide (4e) and vancomycin was carried out in a mice staphylococcal sepsis model. Healthy female mice of the SHK colony weighing 20–22 g after two-week quarantine were randomized into groups (n = 10) and received S. aureus as the infectious agent (strain 10, clinical isolate, adapted for growth in vivo by five-fold passaging in mice). In the experiment, female mice of the SHK colony weighing 20–22 g were used. S. aureus (strain 10, clinical isolate), adapted for growth in vivo by five-fold passaging in mice, was used as the infectious agent. Initially, the lethal dose (LD100) of staphylococcus was determined for this mouse line using the intravenous infection route. The mice deaths were counted daily for 10 days. Thus, the lethal dose (LD100) was defined as 8 × 10^8 CFU/mouse. Afterwards, the mice were seated in cages of 10 heads and were infected intravenously with S. aureus at a lethal dose, and the efficacy of the tested drugs was determined by the ED50 value (i.e., the dose at which 50% of the experimental animals survive). Then, 30 min after infection, the mice were injected intravenously with eremomycin N-(2-((2-fluorobenzyl)amino)ethyl)amide (4e) at single doses from 0.1 to 2.5 mg/kg. or vancomycin at doses from 2.5 to 7.5 mg/kg. As a control dose, a group of untreated animals infected with a lethal dose of S. aureus was present in the experiment. The determination of ED50 of the tested compounds was carried out in one experiment under a single control using the Behrens method.

As to “Eremomycin N-(2-((2,3,4,5,6-pentafluorobenzyl)amino)ethyl)amide [4p]”, the “MIC E. faecalis 9” value against E. faecalis 9 is 0.25 µg/mL. The “MIC E. faecalis 583” value against E. faecalis 583 is 1 µg/mL. Also, the “MIC E. faecium 3576” value in the experiment with E. faecium 3576 came out at 4 µg/mL. For the same substance, in the experiment on S. aureus 3797, the “MIC S.aureus 3797” value was in the range of 1 to 2 µg/mL. The “MIC E. gallinarum ВП 4147” value with E. gallinarum BΠ 4147 was determined as 2 µg/mL. For the same substance, the “MIC E. faecium 2” value in the experiment with E. faecium 2 came out at 1 µg/mL. In the experiment on S.aureus 3798, the “MIC S.aureus 3798” value was 4 µg/mL. Further, in the experiment on S. pneumoniae ATCC 6305, the “MIC S.pneumoniae ATCC 6305” value was found to be 0.01 µg/mL. Also, the “MIC S.haemoliticus 602” value in the experiment on S. haemoliticus 602 was 0.25 to 0.5 µg/mL. In the experiment with E. faecium 4, the “MIC E. faecium 4” value was determined as 1 µg/mL. Moreover, the “MIC S.aureus ATCC 29213” value in [1] amounted to 0.25 µg/mL. Also, the “MIC E. faecalis 559” value in the experiment with E. faecalis 559 stood at 1 µg/mL. Further, the “MIC S.aureus R-2” value against S. aureus R-2 came out at 0.25 µg/mL.

As for “Eremomycin N-(2-((4-methoxybenzyl)amino)ethyl)amide [4d]”, the “MIC E. faecalis 9” value with E. faecalis 9 is 0.03 µg/mL. In the experiment with E. faecalis 583, the “MIC E. faecalis 583” value came out at 0.5 µg/mL. In addition, the “MIC E. faecium 3576” value against E. faecium 3576 was in the range of 0.5 to 1 µg/mL. For the same substance, in the experiment with S. aureus 3797, the “MIC S.aureus 3797” value came to 0.5 µg/mL. Moreover, in the experiment with E. gallinarum BΠ 4147, the “MIC E. gallinarum ВП 4147” value stood at 1 µg/mL. For the same substance, the “MIC E. faecium 2” value against E. faecium 2 was 0.5 µg/mL. In the experiment with S.aureus 3798, the “MIC S.aureus 3798” value fell in the range of 0.5 to 1 µg/mL. Moreover, in the experiment with S. pneumoniae ATCC 6305, the “MIC S.pneumoniae ATCC 6305” value amounted to 0.01 µg/mL. Also, the “MIC S.haemoliticus 602” value against S. haemoliticus 602 was found to be 0.25 µg/mL. The “MIC E. faecium 4” value against E. faecium 4 amounted to 0.25 µg/mL. The “MIC S.aureus ATCC 29213” value in experiment [1] was 0.03 µg/mL. For the same substance, the “MIC E. faecalis 559” value with E. faecalis 559 stood at 0.5 µg/mL. The “MIC S.aureus R-2” value against S. aureus R-2 was found to be 0.06 µg/mL.

Take “Eremomycin N-(2-((4-fluorobenzyl)amino)ethyl)amide [4h]”: the “MIC E. faecalis 9” value in the experiment with E. faecalis 9 turned out to be 0.03 µg/mL. In addition, the “MIC E. faecalis 583” value with E. faecalis 583 lay within 0.5 to 1 µg/mL. The “MIC E. faecium 3576” value in the experiment on E. faecium 3576 came out at 2 µg/mL. In addition, the “MIC S.aureus 3797” value against S. aureus 3797 is 0.25 µg/mL. In addition, the “MIC E. gallinarum ВП 4147” value against E. gallinarum BΠ 4147 is 0.5 to 1 µg/mL. Besides, in the experiment on E. faecium 2, the “MIC E. faecium 2” value worked out at 0.5 µg/mL. Also, the “MIC S.aureus 3798” value with S.aureus 3798 was 0.5 µg/mL. In the experiment with S. pneumoniae ATCC 6305, the “MIC S.pneumoniae ATCC 6305” value turned out to be 0.01 µg/mL. The “MIC S.haemoliticus 602” value against S. haemoliticus 602 is 0.25 µg/mL. The “MIC E. faecium 4” value in the experiment on E. faecium 4 turned out to be 0.25 µg/mL. Also, the “MIC S.aureus ATCC 29213” value in experiment [1] came out at 0.25 µg/mL. Besides, in the experiment on E. faecalis 559, the “MIC E. faecalis 559” value came to 0.125 µg/mL. Moreover, the “MIC S.aureus R-2” value against S. aureus R-2 was found to be 0.06 µg/mL.

On to “Eremomycin N-(2-((2-chloro-4-fluorobenzyl)amino)ethyl)amide [4l]”, for which the “MIC E. faecalis 9” value against E. faecalis 9 was found to be 0.25 µg/mL. Further, the “MIC E. faecalis 583” value against E. faecalis 583 is 1 µg/mL. Further, in the experiment with E. faecium 3576, the “MIC E. faecium 3576” value was found to be 2 µg/mL. The “MIC S.aureus 3797” value with S. aureus 3797 amounted to 2 µg/mL. In addition, in the experiment with E. gallinarum BΠ 4147, the “MIC E. gallinarum ВП 4147” value came to 1 µg/mL. The “MIC E. faecium 2” value in the experiment with E. faecium 2 stood at 1 µg/mL. Further, the “MIC S.aureus 3798” value in the experiment with S.aureus 3798 was 1 µg/mL. In the experiment with S. pneumoniae ATCC 6305, the “MIC S.pneumoniae ATCC 6305” value was in the range of 0.03 to 0.06 µg/mL. Moreover, in the experiment on S. haemoliticus 602, the “MIC S.haemoliticus 602” value turned out to be 0.125 µg/mL. Besides, the “MIC E. faecium 4” value against E. faecium 4 is 0.25 µg/mL. Besides, the “MIC S.aureus ATCC 29213” value in experiment [1] turned out to be 0.125 µg/mL. Moreover, in the experiment on E. faecalis 559, the “MIC E. faecalis 559” value was determined as 1 µg/mL. Moreover, the “MIC S.aureus R-2” value in the experiment on S. aureus R-2 stood at 0.25 µg/mL.

For “Eremomycin N-(2-phenethylamino)ethyl)amide [4b]”, the “MIC E. faecalis 9” value with E. faecalis 9 is 0.06 µg/mL. Also, the “MIC E. faecalis 583” value in the experiment with E. faecalis 583 worked out at 0.5 µg/mL. Further, in the experiment with E. faecium 3576, the “MIC E. faecium 3576” value stood at 2 µg/mL. Besides, the “MIC S.aureus 3797” value in the experiment with S. aureus 3797 was 1 µg/mL. The “MIC E. gallinarum ВП 4147” value in the experiment on E. gallinarum BΠ 4147 was 1 µg/mL. In addition, the “MIC E. faecium 2” value in the experiment with E. faecium 2 came out at 1 µg/mL. Moreover, the “MIC S.aureus 3798” value in the experiment with S.aureus 3798 stood at 2 µg/mL. Moreover, the “MIC S.pneumoniae ATCC 6305” value in the experiment on S. pneumoniae ATCC 6305 worked out at 0.01 µg/mL. In the experiment with S. haemoliticus 602, the “MIC S.haemoliticus 602” value is 0.5 µg/mL. In the experiment on E. faecium 4, the “MIC E. faecium 4” value amounted to 0.5 µg/mL. For the same substance, the “MIC S.aureus ATCC 29213” value in experiment [1] worked out at 0.5 µg/mL. The “MIC E. faecalis 559” value in the experiment with E. faecalis 559 is 0.5 µg/mL. In the experiment with S. aureus R-2, the “MIC S.aureus R-2” value was 0.06 µg/mL.

Take Eremomycin: the Survival in experiment [2] (dose 0.5 mg/kg) came out at 20%; in [2] (dose 1.5 mg/kg) it was 40%; in [2] (dose 2.5 mg/kg), 80%; in experiment [2] (dose 3.5 mg/kg), 80%; in experiment [2] (dose 4.5 mg/kg), 100%; in [2] (dose 5.5 mg/kg), 100%. Moreover, in experiment [2] (mice infected IV with lethal dose of S. aureus (8 × 10^8 CFU/mouse), single IV dose 30 min after infection, n = 10 per group, observed 14 days, Behrens method), the ED50 – broadly, the midpoint of the dose-response relation – stood at 1.8 mg/kg.
